{"source": "patent US20250249025A1", "about": "“DRUG DELIVERY CARRIER UTILIZING PROPERTY OF D-ALLOSE BEING UPTAKEN BY CANCER CELL, DRUG DELIVERY METHOD, AND COMPOSITION FOR TREATING RENAL CELL CARCINOMA” (NATIONAL UNIVERSITY CORPORATION KAGAWA UNIVERSITY, priority 2019, published 2025)", "key": {"[1]": {"test_system": "human carcinoma cell lines", "type": "cell-based", "conditions": "48 h, 10 mM", "protocol": "An uptake amount of a rare sugar, which had been added to a medium, into carcinoma cells was analyzed using the cell lines of three types of cancers. As the rare sugar, four kinds, that is, D-allose, D-allulose (D-psicose), L-allulose (L-psicose), and allitol were used, while D-glucose and fructose were used as a monosaccharide which was not a rare sugar.\nCells of each of the cell lines were cultured in RPMI-1640 media and during culturing, six sugars were each added to the resulting media and cultured. After culturing, an amount of each sugar taken up into the cells was analyzed. The medium to which no sugar was added during culturing was used as a control.\nUsed were human bladder carcinoma cell lines (RT112, 253), and J82), human prostatic carcinoma cell lines (LNCa, Du145, and PC-3), and human renal cell carcinoma cell lines (ACHN, Caki-I, and Caki-II). […]\nAfter culturing for 48 hours, the attached human carcinoma cells were mechanically separated and collected in a Spitz tube together with the culture solution and floating cells. […] From the area thus obtained, the sugar content in the cells was determined using a calibration curve. With respect to the ketose, two peaks were found after labeling with ABEE so that the sugar content in the cells was determined from the calibration curves of both peaks."}, "[2]": {"test_system": "renal cell carcinoma cell line (ACHN)", "assay": "Cell survival assay (MTT assay), ACHN", "type": "cell-based, human", "conditions": "10 mM, 25 mM and 50 mM in MEM, 24 hours, compared with Control (p<0.05), FIG. 1", "protocol": "The antitumor effect of rare sugars was analyzed using the three human renal cell carcinoma cell lines (ACHN, Caki-I, and Caki-II) used in Example 1. As the rare sugars, used were the following ten rare sugars: L-allulose, D-allulose, D-allose, L-fructose, D-mannose, L-sorbose, D-tagatose, D-galactose, D-sorbose, and L-tagatose, while as monosaccharides not belonging to rare sugars, D-glucose and D-fructose were used.\nAs a medium, a minimum essential medium (MEM) containing 1000 mg/l of D-glucose was used. By adjusting it to contain 10 mM, 25 mM, and 50 mM of each of the monosaccharides or rare sugars and using thus-obtained MEMs [shown by (10), (25), and (50) in the drawing], an antitumor effect of the rare sugars was evaluated.\nA 5.0×10^4 cells/ml of each of cell suspensions was formed using MEM. The resulting suspension (0.1 ml/well) was distributed in a 96-well plate, followed by culturing for 24 hours. […]\nThe MTT assay is one of test methods for measuring survival and makes use of a color reaction of an insoluble formazan dye (blue) caused by the reduction of MTT which is a tetrazolium salt. […] The cell viability is determined by measuring this color reaction with a microplate reader."}, "[3]": {"test_system": "liver tissue", "assay": "Liver tissue histology in renal cell carcinoma xenograft mouse models", "type": "in vivo", "conditions": "xenograft mice, intraperitoneal once a day, day 35; diagnosis by a medical specialist in pathology; FIG. 8", "protocol": "The day when the tumor size of the renal cell carcinoma xenograft mouse models became 200 mm^3 or more was called day 0 and the intraperitoneal injection of a D-allose-containing solution was started from day 1. The solution injected is 0.4 mL of physiological saline or a solution obtained by dissolving 100 mg/kg or 400 mg/kg of D-allose in 0.4 mL physiological saline. The resulting solution was intraperitoneally injected into three groups of mice (Control, 100 mg/kg of D-allose, and 400 mg/kg of D-allose) once a day for 5 weeks in total. The body weight of the mice and the long and short diameters of the tumor were measured over time twice a week. It is to be noted that the tumor volume was obtained as a product of long diameter×short diameter×short diameter of the tumor×0.5. […]\nThe tissue of the excised tumor, kidney, and liver was fixed with a 4% paraformaldehyde phosphate buffer, embedded with paraffin, and sliced into a 4-μm thick section. The resulting sliced section was stained with hematoxylin and eosin and evaluated by a medical specialist in pathology. The influence of D-allose on the tumor tissue was evaluated by a necrosis area (%) and an image of the number of nuclear fissions (Cells/HPF). It is to be noted that the necrosis area was measured using an image recording software Nikon NIS—Elements D and figures after the decimal point were omitted. […]"}}, "data": [{"smiles": "O=C[C@H](O)[C@H](O)[C@H](O)[C@H](O)CO", "note": "[D-allose]", "values": [{"measurement": "Uptake into the cells", "setting": "[1]", "value": "found only in one (PC-3) of three human prostate carcinoma cell lines"}, {"measurement": "Viability", "setting": "[2]", "value": "significantly reduced the viability"}, {"measurement": "Influence on the liver tissue", "setting": "[3]", "value": "No influence"}]}]}
